According to ChEMBL document CHEMBL4825746, “Combination Therapy Comprising A2A/A2B and PD-1/PD-L1 Inhibitors for Treating Cancer” (ACS Med Chem Lett, 2021):

What was measured:
Adenosine receptor A2a = Adenosine receptor A2a (Homo sapiens, UniProt P29274); assay: Displacement of L0058RED from adenosine A2A receptor (unknown origin) in Tag-lite labeled cells measured after 45 mins by fluorescence based HTRF assay; format: cell-based
Adenosine receptor A2b = molecular target: T1, Adenosine receptor A2b (Homo sapiens, UniProt P29275); assay: Inhibition of human adenosine A2B receptor expressed in HEK293 cells assessed as reduction in NECA-stimulated cAMP accumulation preincubated for 30 mins followed by NECA stimulation for 60 mins by FRET assay; format: functional, cell-based
T1 sequence (P29275 whole entry): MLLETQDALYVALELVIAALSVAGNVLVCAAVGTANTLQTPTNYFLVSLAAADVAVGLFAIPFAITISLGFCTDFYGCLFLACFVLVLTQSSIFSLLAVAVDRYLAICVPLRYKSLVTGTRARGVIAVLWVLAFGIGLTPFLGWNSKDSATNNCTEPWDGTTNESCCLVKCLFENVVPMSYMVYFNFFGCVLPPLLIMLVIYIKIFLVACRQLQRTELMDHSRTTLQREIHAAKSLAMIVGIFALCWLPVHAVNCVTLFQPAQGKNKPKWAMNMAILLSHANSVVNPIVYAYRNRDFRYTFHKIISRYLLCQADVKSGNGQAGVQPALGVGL

Chain of Adenosine receptor A2a (P29274 whole entry): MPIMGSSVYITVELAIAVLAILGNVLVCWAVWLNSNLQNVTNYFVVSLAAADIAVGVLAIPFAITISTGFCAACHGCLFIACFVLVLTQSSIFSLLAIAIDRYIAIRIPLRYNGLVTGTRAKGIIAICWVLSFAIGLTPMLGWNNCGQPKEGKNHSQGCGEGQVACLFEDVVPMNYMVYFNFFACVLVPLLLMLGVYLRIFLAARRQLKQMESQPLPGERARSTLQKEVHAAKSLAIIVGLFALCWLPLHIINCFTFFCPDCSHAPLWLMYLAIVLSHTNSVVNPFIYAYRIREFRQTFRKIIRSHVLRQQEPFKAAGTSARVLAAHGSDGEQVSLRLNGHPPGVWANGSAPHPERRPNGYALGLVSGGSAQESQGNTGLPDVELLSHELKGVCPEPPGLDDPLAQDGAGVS

Row | SMILES | Ki (Adenosine receptor A2a) | EC50 (Adenosine receptor A2b)
1 | Cn1nccc1-c1c(-c2cccc(C#N)c2F)nc(N)c2nn(Cc3ccccn3)nc12 | ≤ 10 nM | ≤ 10 nM
2 | N#Cc1cccc(-c2nc(N)n3nc(Cc4cccnc4)nc3c2-c2ccncn2)c1 | ≤ 10 nM | ≤ 10 nM
3 | N#Cc1cccc(-c2nc(N)c3nn(Cc4ncccc4F)nc3c2-c2ccncc2)c1 | ≤ 10 nM | ≤ 10 nM

Second part, the molecule after the results:

Row | Ki (Adenosine receptor A2a) | EC50 (Adenosine receptor A2b) | SMILES
4 | ≤ 10 nM | ≤ 10 nM | N#Cc1cccc(-c2cc3nc(C(O)c4c(F)cccc4F)nn3c(N)n2)c1F (configuration not stated)
5 | ≤ 10 nM | ≤ 10 nM | N#Cc1cccc(-c2nc(N)n3nc(C(O)c4c(F)cccc4F)nc3c2C#N)c1F (configuration not stated)
6 | ≤ 10 nM | ≤ 10 nM | Cc1ncoc1-c1c(-c2cccc(C#N)c2)nc(N)c2nc(C(N)c3c(F)cccc3F)nn12 (configuration not stated)
